Reference: US8299040B2, “Methods for treating cancer targeting transglutaminase” (Board of Regents, The University of Texas System, priority 2006, dated 2012)

Experiments:
Type in all cases: cell-based, human
MDA-Panc28 cells = assay: Acidic vesicular organelles / autophagy by acridine orange FACS; conditions: 48 h, flow cytometry; control cells 8%
Description: To detect and quantify acidic vesicular organelles, cells were stained with acridine orange as described previously. The number of acridine orange-positive cells was determined by fluorescence-activated cell sorting (FACS) analysis. Cell morphology was examined using phase-contrast and fluorescence microscopy (Nikon, Melville, N.Y., USA) with the cells remaining in their culture flasks.
Exponentially growing untreated MDA-Panc28 cells were plated 24 h before transfection. Plated cells were transfected with double-stranded siRNA targeting TG2 mRNA and control (non-silencing) siRNA (all from Qiagen, Venlo, Netherlands) and/or the green fluorescent protein (GFP) and microtubule-associated protein 1 light chain 3 (LC3) fusion vector (GFP-LC3) using the Qiagen transfection reagent according to the manufacturer's protocol. Two siRNA sequences targeting TG2 were designed using siRNA-designing software (Qiagen). PKCδ siRNA was obtained from Santa Cruz Biotechnology (Santa Cruz, Calif., USA). Untransfected cells and non-silencing control siRNA-transfected cells were used as negative controls. After treatment, the cells were harvested for western blot analysis or FACS analysis to determine whether autophagy had occurred.

mTOR = mTOR pathway phosphorylation in MDA-Panc28 cells (western blot)
Description: (A) Phosphorylated mTOR was detected after 48 h of treatment with various doses of rottlerin, cells were subjected to western blot analysis. Phosphorylation of mTOR was inhibited in a dose-dependent manner. (B) MDA-Panc28 cells were treated with a specific mTOR inhibitor, rapamycin (at either 20 nM or 100 nM), TG2 siRNA or left untreated.
After treatment, the cells were collected and centrifuged, and whole-cell lysates were obtained using a lysis buffer. Total protein concentration was determined using a DC protein assay kit (Bio-Rad, Hercules, Calif., USA). Rottlerin and mTOR inhibitor (rapamycin) were purchased from Calbiochem (La Jolla, Calif., USA). Aliquots containing 30 μg of total protein from each sample were subjected to sodium dodecyl sulfate-polyacrylamide gel electrophoresis (SDS-PAGE) with a 4-20% gradient and electrotransferred to nitrocellulose membranes. […] Mouse anti-β-actin and donkey anti-mouse secondary antibody were purchased from Sigma Chemical (St. Louis, Mo., USA) so that β-actin expression could be monitored to ensure equal loading of proteins. […] The blots were visualized with a Fluor Chem 8900 imager and quantified by a densitometer using the Alpha Imager application program (Alpha Innotech). […]

TG2 = TG2 transcript level in MDA-Panc28 cells (RT-PCR)
Description: Cells were collected for isolation of total RNA. Total cellular RNA was isolated with Trizol reagent (Invitrogen/Life Technologies, Carlsbad, Calif., USA), and cDNA was obtained from 5 μg of total RNA using a Superscript II RT kit (Invitrogen/Life Technologies). Briefly, 5 μl of the total 20 μl of reverse-transcribed product was used for PCR in 1×PCR buffer containing 1.5 mM MgCl2, 250 μM dNTPs, 0.5 units of Taq polymerase (Invitrogen/Life Technologies), and 100 ng of TG2 primer (primer 1,5′-[…]-3′; primer II, 5′-[…] GAGCAGG-3′) or β-actin-specific primer (Sigma-Genosys, Houston, Tex., USA). Thirty cycles were used for PCR analysis. The reaction products were analyzed on a 2% agarose gel containing ethidium bromide, and cDNA synthesis was verified by detection of the β-actin transcript, which was used as an internal control.

[1] = system: MDA-Panc28, Capan-2, Bx-PC3, Panc1 and MIAPaCa cells; assay: LC3-II accumulation (autophagy) in pancreatic cancer cell lines, western blot; conditions: 4 μM for 48 h
Description: (A) A panel of pancreatic cancer cell lines including MDA-Panc28, Capan-2, Bx-PC3, Panc1 and MIAPaCa cells were treated with Rottlerin (4 μM) for 48 h for the detection of LC3-II and TG2 expression by western blot. (B) MCF-7 cell line was also tested for LC3-II and TG2 expression by western blot. (C) Expression of TG2 in MDA-Panc28 cells was determined upon exposure to different treatments (D) Detection of autophagolysosomes; MDA-Panc28 cells were treated with either control siRNA, Rottlerin or TG2 siRNA for 48 h. Photomicrographs show morphological changes of the cells by phase contrast microscopy (left panels); acridine orange staining of the acidic vesicular organelles by fluorescent microscopy (center panels) and the localization LC3-II at autophagosomes in cells after transfection with GFP-LC3 plasmid (right panels). […]
After treatment, the cells were collected and centrifuged, and whole-cell lysates were obtained using a lysis buffer. Total protein concentration was determined using a DC protein assay kit (Bio-Rad, Hercules, Calif., USA). […] Mouse anti-β-actin and donkey anti-mouse secondary antibody were purchased from Sigma Chemical (St. Louis, Mo., USA) so that β-actin expression could be monitored to ensure equal loading of proteins. […] The blots were visualized with a Fluor Chem 8900 imager and quantified by a densitometer using the Alpha Imager application program (Alpha Innotech). […]

Compound: CC(=O)c1c(O)c(C)c(O)c(Cc2c(O)c3c(c(C(=O)/C=C/c4ccccc4)c2O)OC(C)(C)C=C3)c1O [rottlerin]
- percentage of red fluorescein-positive cells (acidic vesicular organelles) (MDA-Panc28 cells): 64%
- phosphorylated mTOR (p-mTOR) (mTOR; MDA-Panc28, 48 h): downregulated phosphorylated mTOR (p-mTOR)
- p-p70S6K (mTOR; MDA-Panc28, data not shown): downregulated
- effect on TG2 expression at the level of transcription (TG2): inhibitory effect
- endogenous LC3-II accumulation [1]: significant increase in endogenous LC3-II accumulation
